The record followed here is ChEMBL document CHEMBL4138061, “Structure-activity relationships for the synthesis of selective cyclooxygenase 2 inhibitors: an overview (2009-2016)” (Medchemcomm, 2017).

A value given as a limit tells only on which side of the number the result lay.

In assay [1] the target is T1, Prostaglandin G/H synthase 2 (Homo sapiens, UniProt P35354).
T1 sequence (P35354 whole entry): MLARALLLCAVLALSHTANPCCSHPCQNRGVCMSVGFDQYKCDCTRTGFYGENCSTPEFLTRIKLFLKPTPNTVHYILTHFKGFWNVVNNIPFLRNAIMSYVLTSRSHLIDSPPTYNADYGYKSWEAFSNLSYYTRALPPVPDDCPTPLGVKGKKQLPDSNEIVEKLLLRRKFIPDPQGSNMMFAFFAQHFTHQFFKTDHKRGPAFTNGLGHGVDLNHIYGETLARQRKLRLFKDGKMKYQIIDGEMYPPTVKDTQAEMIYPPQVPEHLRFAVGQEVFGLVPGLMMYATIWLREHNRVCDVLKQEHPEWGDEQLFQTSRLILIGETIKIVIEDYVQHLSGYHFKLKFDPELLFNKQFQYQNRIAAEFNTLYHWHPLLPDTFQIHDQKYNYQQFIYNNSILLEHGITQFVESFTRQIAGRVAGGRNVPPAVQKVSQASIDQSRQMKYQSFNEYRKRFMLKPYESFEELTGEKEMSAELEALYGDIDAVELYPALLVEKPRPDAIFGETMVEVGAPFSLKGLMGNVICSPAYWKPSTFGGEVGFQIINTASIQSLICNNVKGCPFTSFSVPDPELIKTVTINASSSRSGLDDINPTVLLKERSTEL
The experiment in a line: Inhibition of human recombinant COX2 by enzyme immuno assay.

Assay [2] can be described thus: Selectivity index, ratio of IC50 for ovine COX1 to IC50 for human COX2.
Assay [3] concerns the target T2, Prostaglandin G/H synthase 1 (Ovis aries, UniProt P05979).
T2 sequence (P05979 whole entry): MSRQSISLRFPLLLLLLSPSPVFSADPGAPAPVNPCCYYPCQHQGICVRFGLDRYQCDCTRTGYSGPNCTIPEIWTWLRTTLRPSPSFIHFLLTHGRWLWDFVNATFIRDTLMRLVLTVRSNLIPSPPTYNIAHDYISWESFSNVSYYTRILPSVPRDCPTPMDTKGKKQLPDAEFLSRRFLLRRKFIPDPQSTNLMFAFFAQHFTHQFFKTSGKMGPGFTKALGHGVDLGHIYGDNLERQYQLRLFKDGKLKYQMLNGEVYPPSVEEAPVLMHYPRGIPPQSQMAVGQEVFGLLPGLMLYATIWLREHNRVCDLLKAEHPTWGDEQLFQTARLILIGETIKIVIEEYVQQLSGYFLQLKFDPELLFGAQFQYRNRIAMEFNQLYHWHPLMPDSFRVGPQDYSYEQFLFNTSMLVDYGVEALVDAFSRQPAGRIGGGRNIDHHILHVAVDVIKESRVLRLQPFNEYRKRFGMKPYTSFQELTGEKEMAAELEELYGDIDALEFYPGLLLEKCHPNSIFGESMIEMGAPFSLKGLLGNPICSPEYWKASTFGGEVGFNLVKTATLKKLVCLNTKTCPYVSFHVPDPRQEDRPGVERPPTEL
The experiment in a line: Inhibition of ovine COX1 by fluorescence based assay.

Assay [4] deals with T1, Prostaglandin G/H synthase 2. The assay can be described thus: Inhibition of human COX2 by fluorescence based assay.
For assay [5], the species on record is Homo sapiens. The experiment in a line: Selectivity index, ratio of IC50 for COX1 (unknown origin) to IC50 for COX2 (unknown origin).
Assay [6] concerns the target T1, Prostaglandin G/H synthase 2. The experiment in a line: Inhibition of COX2 (unknown origin).
The target in assay [7] is T3, Prostaglandin G/H synthase 1 (Homo sapiens, UniProt P23219). The experiment in a line: Inhibition of COX1 (unknown origin).
T3 sequence (P23219 whole entry): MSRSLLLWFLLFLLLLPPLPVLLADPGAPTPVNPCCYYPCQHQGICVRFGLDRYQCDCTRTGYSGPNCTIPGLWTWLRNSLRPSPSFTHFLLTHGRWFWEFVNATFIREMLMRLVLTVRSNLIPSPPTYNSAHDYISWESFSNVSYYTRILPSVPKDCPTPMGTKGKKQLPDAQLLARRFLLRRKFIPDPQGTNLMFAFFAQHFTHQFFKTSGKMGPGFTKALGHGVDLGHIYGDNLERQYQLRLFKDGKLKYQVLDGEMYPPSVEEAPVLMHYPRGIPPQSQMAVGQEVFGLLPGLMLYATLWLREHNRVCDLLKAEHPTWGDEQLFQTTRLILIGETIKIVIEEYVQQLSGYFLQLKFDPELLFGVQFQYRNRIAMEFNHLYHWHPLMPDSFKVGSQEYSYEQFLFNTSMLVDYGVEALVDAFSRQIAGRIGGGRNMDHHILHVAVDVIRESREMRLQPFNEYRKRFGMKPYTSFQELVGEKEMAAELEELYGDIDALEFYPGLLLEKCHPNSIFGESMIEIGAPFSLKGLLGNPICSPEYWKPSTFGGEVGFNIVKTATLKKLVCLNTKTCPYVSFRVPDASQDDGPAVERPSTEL
Assay [8] has as its target T1, Prostaglandin G/H synthase 2. The assay can be described thus: Inhibition of COX2 in human lympho-monocytes suspension assessed as reduction in LPS-induced PGE2 production pre-incubated for 30 mins before LPS stimulation for 24 hrs by EIA method. Type of assay: cell-based.
Assay [9] deals with T2, Prostaglandin G/H synthase 1. The assay can be described thus: Inhibition of ovine COX1 using arachidonic acid substrate by TMPD dye based colorimetry.
Assay [10] concerns the target T1, Prostaglandin G/H synthase 2. The assay can be described thus: Inhibition of human COX2 assessed as reduction in PGE2 production incubated for 2 mins using arachidonic acid substrate by enzyme immuno assay.
Assay [11] addresses T3, Prostaglandin G/H synthase 1. The assay can be described thus: Inhibition of human COX1 assessed as reduction in PGE2 production incubated for 2 mins using arachidonic acid substrate by enzyme immuno assay.
Assay [12] is filed under the species Homo sapiens. The experiment in a line: Selectivity index, ratio of IC50 for human COX1 to IC50 for human COX2.
Assay [13] has as its target T4, Prostaglandin G/H synthase 2 (Ovis aries, UniProt P79208).
T4 sequence (P79208 whole entry): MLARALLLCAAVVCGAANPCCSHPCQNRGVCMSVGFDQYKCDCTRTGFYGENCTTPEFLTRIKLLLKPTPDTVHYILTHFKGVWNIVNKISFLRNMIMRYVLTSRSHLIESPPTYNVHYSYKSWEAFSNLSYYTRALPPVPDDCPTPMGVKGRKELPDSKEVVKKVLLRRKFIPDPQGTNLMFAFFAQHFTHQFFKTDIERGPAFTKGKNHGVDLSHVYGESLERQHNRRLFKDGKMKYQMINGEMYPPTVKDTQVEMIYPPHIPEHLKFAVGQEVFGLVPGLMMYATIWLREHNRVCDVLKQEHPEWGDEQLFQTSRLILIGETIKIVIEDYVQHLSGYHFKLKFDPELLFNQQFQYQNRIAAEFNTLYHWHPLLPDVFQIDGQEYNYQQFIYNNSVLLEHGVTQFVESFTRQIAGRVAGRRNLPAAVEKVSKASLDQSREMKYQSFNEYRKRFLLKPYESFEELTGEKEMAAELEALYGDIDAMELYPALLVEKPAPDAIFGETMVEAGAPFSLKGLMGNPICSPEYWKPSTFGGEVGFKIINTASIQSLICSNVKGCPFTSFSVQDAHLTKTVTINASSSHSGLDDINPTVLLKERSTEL
The experiment in a line: Inhibition of ovine COX2 by enzyme chemiluminescence assay.

For assay [14], the target named is T2, Prostaglandin G/H synthase 1. The assay can be described thus: Inhibition of ovine COX1 by enzyme chemiluminescence assay.
Assay [15] is filed under the species Ovis aries. The assay can be described thus: Selectivity index, ratio of IC50 for ovine COX1 to IC50 for ovine COX2.
Assay [16] addresses T1, Prostaglandin G/H synthase 2. The assay can be described thus: Inhibition of human recombinant COX2 assessed as reduction in […] production incubated for 10 mins using arachidonic acid substrate by enzyme immuno assay.
Assay [17] concerns the target T5, Prostaglandin G/H synthase 1 (Ovis aries) (UniProt P05979).
T5 sequence (whole entry): T2 sequence (P05979 whole entry)
The experiment in a line: Inhibition of ovine COX1 at 10 ug/ml using arachidonic acid substrate by TMPD dye based colorimetry.

Assay [18] concerns the target T6, Prostaglandin G/H synthase 2 (Ovis aries) (UniProt P79208).
T6 sequence (whole entry): T4 sequence (P79208 whole entry)
The note with it: 10 ug/ml.
Description: Inhibition of ovine COX2 at 10 ug/ml using arachidonic acid substrate by TMPD dye based colorimetry

In assay [19] the target is T2, Prostaglandin G/H synthase 1. The assay can be described thus: Inhibition of ovine recombinant COX1 by enzyme immuno assay.

Turning to `CS(=O)(=O)c1ccc(-n2nc(-c3ccc(O)cc3)cc2-c2ccc(C(F)(F)F)cc2)cc1`, the IC50 in assay [1] was determined as 970 nM. In addition, the Ratio IC50 in [2] amounted to 6.08.

For the molecule `Cc1ccc(-c2c(-c3ccc(S(C)(=O)=O)cc3)c3cccc4ccn2c43)cc1`, in assay [2], the Ratio IC50 is > 5000. Also, the IC50 was > 100000 nM in assay [3] and 20 nM in assay [4].

With `CS(=O)(=O)c1ccc(C2C(c3ccccc3)=NOC23COc2ccccc2C3=O)cc1` (stereo not given), in [5], the Ratio IC50 is 116. In addition, the IC50 in assay [6] amounted to 90 nM; in assay [7], 10500 nM.

In the case of `Cc1ccc(Nc2c(F)cccc2Cl)c(Cc2nnn[nH]2)c1`, in [8], the IC50 was 14 nM.

`Cc1ccc(-c2nn(Cc3nnc(-c4ccccc4[N+](=O)[O-])o3)c(=O)c3ccccc23)cc1C`: the IC50 in [9] was > 50000 nM.

With `NS(=O)(=O)c1ccc(N2N=C(c3ccc(N4CCOCC4)cc3)CC2c2ccc(F)cc2F)cc1` (stereo not given), the IC50 is 80 nM in assay [10] and 36100 nM in assay [11]. Also, the Ratio IC50 in assay [12] amounted to 451.

For `CS(=O)(=O)c1ccc(-c2cc(Cn3ccnc3)c3ccc4c(c3n2)CCCC4)cc1`, the figures for the IC50 in assay [13] and in [14] were 63 nM and 34500 nM, respectively. Moreover, in [15], the Ratio IC50 worked out at 548.

Consider `CS(=O)(=O)c1ccc(C2NN=C(c3ccc([N+](=O)[O-])cc3)O2)cc1` (stereo not given), for which the Ratio IC50 in assay [2] came to 133. Moreover, the IC50 in assay [16] came out at 480 nM.

For the molecule `Cc1cc(C)c2c(n1)nn1c(/C=C/c3ccc([N+](=O)[O-])cc3)c(C)[nH]c21`, the inhibition worked out at 3.92% in [17] and 76% in assay [18]. Further, in assay [15], the Ratio IC50 was determined as 133. Further, the IC50 in [9] is 63800 nM.

`CCOc1ccc(-c2cc(-c3ccc(C(F)(F)F)cc3)n(-c3ccc(S(C)(=O)=O)cc3)n2)cc1`: the figures for the IC50 in [1] and in assay [19] were 970 nM and 5600 nM, respectively. Also, the Ratio IC50 in assay [2] is 5.77.
